These results are taken from the NIST ThermoML archive (doi:10.1021/je800243y).

Numbers after ± are expanded uncertainties.

A short description of one series: molar heat capacity at constant pressure. As to conditions: 333.15 K; 101.33 kPa; Crystal; Large sample (1 g) DSC.
Regarding `Cc1cn([C@H]2C[C@H](O)[C@@H](CO)O2)c(=O)[nH]c1=O` [thymidine], the “molar heat capacity at constant pressure” value is listed as 291.68 ± 5.8 J/K/mol.

Consider `O=c1[nH]c(=O)n([C@H]2C[C@H](O)[C@@H](CO)O2)cc1I` [5-iodo-2'-deoxyuridine], for which the “molar heat capacity at constant pressure” value amounted to 301.22 ± 6 J/K/mol.

In the case of `O=c1ccn([C@H]2C[C@H](O)[C@@H](CO)O2)c(=O)[nH]1` [2'-deoxyuridine], the “molar heat capacity at constant pressure” value was found to be 282.63 ± 5.7 J/K/mol.

Staying with this series, now noted: 338.15 K; 101.33 kPa; Crystal; Large sample (1 g) DSC.
Take `O=c1[nH]c(=O)n([C@H]2C[C@H](O)[C@@H](CO)O2)cc1Br` [5-bromo-2'-deoxyuridine]: the “molar heat capacity at constant pressure” value was determined as 282.38 ± 5.7 J/K/mol.

As for `O=c1[nH]c(=O)n([C@@H]2O[C@H](CO)[C@@H](O)[C@H]2O)cc1I` [2,4-dihdroxy-5-iodo-1-β-D-ribofurnosylpyrimidine], the “molar heat capacity at constant pressure” value worked out at 343.15 ± 6.9 J/K/mol.

With `O=c1[nH]c(=O)n([C@@H]2O[C@H](CO)[C@@H](O)[C@H]2O)cc1Br` [5-bromouridine], the “molar heat capacity at constant pressure” value was found to be 309.47 ± 6.2 J/K/mol.

Regarding `Cc1cn([C@H]2C[C@H](O)[C@@H](CO)O2)c(=O)[nH]c1=O` [thymidine], the “molar heat capacity at constant pressure” value is 293.81 ± 5.9 J/K/mol.

`O=c1[nH]c(=O)n([C@H]2C[C@H](O)[C@@H](CO)O2)cc1I` [5-iodo-2'-deoxyuridine]: the “molar heat capacity at constant pressure” value was determined as 303.48 ± 6.1 J/K/mol.

With `O=c1ccn([C@H]2C[C@H](O)[C@@H](CO)O2)c(=O)[nH]1` [2'-deoxyuridine], the “molar heat capacity at constant pressure” value worked out at 285.38 ± 5.7 J/K/mol.

Still in this series, the particulars now being: 343.15 K; 101.33 kPa; Crystal; Large sample (1 g) DSC.
For the compound `O=c1[nH]c(=O)n([C@H]2C[C@H](O)[C@@H](CO)O2)cc1Br` [5-bromo-2'-deoxyuridine], the “molar heat capacity at constant pressure” value came to 285.09 ± 5.7 J/K/mol.

As for `O=c1[nH]c(=O)n([C@@H]2O[C@H](CO)[C@@H](O)[C@H]2O)cc1I` [2,4-dihdroxy-5-iodo-1-β-D-ribofurnosylpyrimidine], the “molar heat capacity at constant pressure” value came to 343.86 ± 6.9 J/K/mol.

As to `O=c1[nH]c(=O)n([C@@H]2O[C@H](CO)[C@@H](O)[C@H]2O)cc1Br` [5-bromouridine], the “molar heat capacity at constant pressure” value is 309.94 ± 6.2 J/K/mol.

Regarding `Cc1cn([C@H]2C[C@H](O)[C@@H](CO)O2)c(=O)[nH]c1=O` [thymidine], the “molar heat capacity at constant pressure” value stood at 295.95 ± 5.9 J/K/mol.

As to `O=c1[nH]c(=O)n([C@H]2C[C@H](O)[C@@H](CO)O2)cc1I` [5-iodo-2'-deoxyuridine], the “molar heat capacity at constant pressure” value was found to be 305.76 ± 6.1 J/K/mol.

In the case of `O=c1ccn([C@H]2C[C@H](O)[C@@H](CO)O2)c(=O)[nH]1` [2'-deoxyuridine], the “molar heat capacity at constant pressure” value is 288.12 ± 5.8 J/K/mol.

Staying with this series, now noted: 348.15 K; 101.33 kPa; Crystal; Large sample (1 g) DSC.
As for `O=c1[nH]c(=O)n([C@H]2C[C@H](O)[C@@H](CO)O2)cc1Br` [5-bromo-2'-deoxyuridine], the “molar heat capacity at constant pressure” value amounted to 287.81 ± 5.8 J/K/mol.

Regarding `O=c1[nH]c(=O)n([C@@H]2O[C@H](CO)[C@@H](O)[C@H]2O)cc1I` [2,4-dihdroxy-5-iodo-1-β-D-ribofurnosylpyrimidine], the “molar heat capacity at constant pressure” value came to 344.58 ± 6.9 J/K/mol.

`O=c1[nH]c(=O)n([C@@H]2O[C@H](CO)[C@@H](O)[C@H]2O)cc1Br` [5-bromouridine]: the “molar heat capacity at constant pressure” value is 310.41 ± 6.2 J/K/mol.

As to `Cc1cn([C@H]2C[C@H](O)[C@@H](CO)O2)c(=O)[nH]c1=O` [thymidine], the “molar heat capacity at constant pressure” value amounted to 298.09 ± 6 J/K/mol.

With `O=c1[nH]c(=O)n([C@H]2C[C@H](O)[C@@H](CO)O2)cc1I` [5-iodo-2'-deoxyuridine], the “molar heat capacity at constant pressure” value is 308.02 ± 6.2 J/K/mol.

For the compound `O=c1ccn([C@H]2C[C@H](O)[C@@H](CO)O2)c(=O)[nH]1` [2'-deoxyuridine], the “molar heat capacity at constant pressure” value worked out at 290.86 ± 5.8 J/K/mol.

Staying with this series, now noted: 353.15 K; 101.33 kPa; Crystal; Large sample (1 g) DSC.
With `O=c1[nH]c(=O)n([C@H]2C[C@H](O)[C@@H](CO)O2)cc1Br` [5-bromo-2'-deoxyuridine], the “molar heat capacity at constant pressure” value was determined as 290.52 ± 5.8 J/K/mol.

Take `O=c1[nH]c(=O)n([C@@H]2O[C@H](CO)[C@@H](O)[C@H]2O)cc1I` [2,4-dihdroxy-5-iodo-1-β-D-ribofurnosylpyrimidine]: the “molar heat capacity at constant pressure” value came out at 345.29 ± 6.9 J/K/mol.

For `O=c1[nH]c(=O)n([C@@H]2O[C@H](CO)[C@@H](O)[C@H]2O)cc1Br` [5-bromouridine], the “molar heat capacity at constant pressure” value was determined as 310.88 ± 6.2 J/K/mol.

For the compound `Cc1cn([C@H]2C[C@H](O)[C@@H](CO)O2)c(=O)[nH]c1=O` [thymidine], the “molar heat capacity at constant pressure” value is recorded as 300.23 ± 6 J/K/mol.

With `O=c1[nH]c(=O)n([C@H]2C[C@H](O)[C@@H](CO)O2)cc1I` [5-iodo-2'-deoxyuridine], the “molar heat capacity at constant pressure” value is recorded as 310.3 ± 6.2 J/K/mol.

In the case of `O=c1ccn([C@H]2C[C@H](O)[C@@H](CO)O2)c(=O)[nH]1` [2'-deoxyuridine], the “molar heat capacity at constant pressure” value turned out to be 293.6 ± 5.9 J/K/mol.

The series is the same for the next values; noted with them: 358.15 K; 101.33 kPa; Crystal; Large sample (1 g) DSC.
On to `O=c1[nH]c(=O)n([C@H]2C[C@H](O)[C@@H](CO)O2)cc1Br` [5-bromo-2'-deoxyuridine], for which the “molar heat capacity at constant pressure” value is recorded as 293.24 ± 5.9 J/K/mol.

With `O=c1[nH]c(=O)n([C@@H]2O[C@H](CO)[C@@H](O)[C@H]2O)cc1I` [2,4-dihdroxy-5-iodo-1-β-D-ribofurnosylpyrimidine], the “molar heat capacity at constant pressure” value worked out at 346.01 ± 6.9 J/K/mol.

Consider `O=c1[nH]c(=O)n([C@@H]2O[C@H](CO)[C@@H](O)[C@H]2O)cc1Br` [5-bromouridine], for which the “molar heat capacity at constant pressure” value was 311.35 ± 6.2 J/K/mol.

Regarding `Cc1cn([C@H]2C[C@H](O)[C@@H](CO)O2)c(=O)[nH]c1=O` [thymidine], the “molar heat capacity at constant pressure” value is 302.37 ± 6 J/K/mol.

Turning to `O=c1[nH]c(=O)n([C@H]2C[C@H](O)[C@@H](CO)O2)cc1I` [5-iodo-2'-deoxyuridine], the “molar heat capacity at constant pressure” value was found to be 312.55 ± 6.2 J/K/mol.

As to `O=c1ccn([C@H]2C[C@H](O)[C@@H](CO)O2)c(=O)[nH]1` [2'-deoxyuridine], the “molar heat capacity at constant pressure” value was 296.36 ± 5.9 J/K/mol.

Still in this series, the particulars now being: 363.15 K; 101.33 kPa; Crystal; Large sample (1 g) DSC.
On to `O=c1[nH]c(=O)n([C@H]2C[C@H](O)[C@@H](CO)O2)cc1Br` [5-bromo-2'-deoxyuridine], for which the “molar heat capacity at constant pressure” value is on record as 295.95 ± 5.9 J/K/mol.

On to `O=c1[nH]c(=O)n([C@@H]2O[C@H](CO)[C@@H](O)[C@H]2O)cc1I` [2,4-dihdroxy-5-iodo-1-β-D-ribofurnosylpyrimidine], for which the “molar heat capacity at constant pressure” value was 346.72 ± 6.9 J/K/mol.

Take `O=c1[nH]c(=O)n([C@@H]2O[C@H](CO)[C@@H](O)[C@H]2O)cc1Br` [5-bromouridine]: the “molar heat capacity at constant pressure” value is given as 311.82 ± 6.2 J/K/mol.

`Cc1cn([C@H]2C[C@H](O)[C@@H](CO)O2)c(=O)[nH]c1=O` [thymidine]: the “molar heat capacity at constant pressure” value was found to be 304.51 ± 6.1 J/K/mol.

`O=c1[nH]c(=O)n([C@H]2C[C@H](O)[C@@H](CO)O2)cc1I` [5-iodo-2'-deoxyuridine]: the “molar heat capacity at constant pressure” value was 314.82 ± 6.3 J/K/mol.

Regarding `O=c1ccn([C@H]2C[C@H](O)[C@@H](CO)O2)c(=O)[nH]1` [2'-deoxyuridine], the “molar heat capacity at constant pressure” value stood at 299.1 ± 6 J/K/mol.

The series is the same for the next values; noted with them: 368.15 K; 101.33 kPa; Crystal; Large sample (1 g) DSC.
`O=c1[nH]c(=O)n([C@H]2C[C@H](O)[C@@H](CO)O2)cc1Br` [5-bromo-2'-deoxyuridine]: the “molar heat capacity at constant pressure” value turned out to be 298.66 ± 6 J/K/mol.

With `O=c1[nH]c(=O)n([C@@H]2O[C@H](CO)[C@@H](O)[C@H]2O)cc1I` [2,4-dihdroxy-5-iodo-1-β-D-ribofurnosylpyrimidine], the “molar heat capacity at constant pressure” value was 347.44 ± 7 J/K/mol.

For the compound `O=c1[nH]c(=O)n([C@@H]2O[C@H](CO)[C@@H](O)[C@H]2O)cc1Br` [5-bromouridine], the “molar heat capacity at constant pressure” value is given as 312.29 ± 6.2 J/K/mol.

With `Cc1cn([C@H]2C[C@H](O)[C@@H](CO)O2)c(=O)[nH]c1=O` [thymidine], the “molar heat capacity at constant pressure” value was 306.65 ± 6.1 J/K/mol.

For `O=c1[nH]c(=O)n([C@H]2C[C@H](O)[C@@H](CO)O2)cc1I` [5-iodo-2'-deoxyuridine], the “molar heat capacity at constant pressure” value came out at 317.09 ± 6.3 J/K/mol.

With `O=c1ccn([C@H]2C[C@H](O)[C@@H](CO)O2)c(=O)[nH]1` [2'-deoxyuridine], the “molar heat capacity at constant pressure” value is 301.84 ± 6 J/K/mol.
